Laboratory results: patent publication US11696904B2, “Prodrug for therapeutic applications” (The Regents of the University of California, priority 2020, dated 2023)

How the values were obtained:
FL5.12/p190-Luc cells = assay: In vivo bioluminescence imaging, BCR-Abl-driven leukemogenesis model; details: 32 μmol/kg daily i.p., day 6, Balb/c mice, p<0.01
Procedure: In vivo bioluminescence imaging. In an immunocompetent syngeneic model, 6-7 weeks old Balb/c female mice were intravenously injected with Ph+FL5.12/p190/Luc cells (1.0×10^5 cells per mouse) in the tail vein. After 5 days, the mice received daily i.p. injections of fingolimod, FTY-k-PEG, FTY-PEG (all at a dose of 32 μmol/kg) or PBS for 5 days (n=5). Mice were placed under anesthesia using isoflurane (Patterson Veterinary, Greeley, Colo.) and interperitoneally injected with 120 mg/kg of synthetic firefly luciferin (Promega, Madison, Wis.) in PBS at a concentration of 20 mg/mL immediately prior to bioluminescence imaging with an IVIS Lumina system (Caliper Life Sciences, Hopkinton, Mass.) for 4 min. Mice were under anesthesia for the entire duration of imaging and bioluminescence signal intensities in mice were quantified using Living Image 3.2 software associated with the imaging system.
Preserved anti-leukemic effect of FTY-k-PEG in vivo. To assess the anti-leukemic effects of FTY-k-PEG in vivo while eliminating bradycardia and immunosuppressive activity, a BCR-Abl-driven leukemogenesis model in which fingolimod is effectively was used. […] The leukemic expansion of FL5.12/p190-Luc cells was assessed by i.p. administration of synthetic firefly luciferin (120 mg/kg) and subsequent bioluminescence imaging (see FIG. 12B-D). […]

[1] = tested on: circulating B and T lymphocytes; assay: Lymphocyte sequestration; assay type: in vivo, mice; details: 10 mg/kg (32 μmol/kg) i.p., blood 12 h post-injection, compared to saline or FTY-k-PEG
Procedure: Lymphocyte sequestration. Female 8-24 week old C57BL6 mice were intraperitoneally injected with vehicle (0.9% saline or 20% acidified DMSO in 0.9% saline), 10 mg/kg (32 μmol/kg) fingolimod, or 155 mg/kg FTY-k-PEG (32 μmol/kg). After 12 h, blood was collected from the retro-orbital sinus under ketamine/xylazine anesthesia. Whole blood (10 μL) was added to 190 μL of ACK red blood cell lysis buffer, the mixture was incubated at ambient temperature for 3-5 min […], and the white blood cells were recovered by centrifugation. Nucleated cells (Hoechst33342-positive) were counted using a hemocytometer to obtain the white blood cell count. Separately, 50 μL of whole blood was added to 1 mL of ACK red blood cell lysis buffer and incubated for 3-5 min at RT. Cells were washed with 2% fetal calf serum (FCS, Atlanta Biologicals (Flowery Branch, Ga.) in PBS with 0.05% NaN3 (Sigma Aldrich (Milwaukee, Wis.)) and red blood cell lysis was repeated. Tubes were decanted and resuspended in 100 μL of 10% FCS in PBS with 0.05% NaN3 and directly conjugated antibodies against B220, CD4, or CD8 (all from Biolegend, San Diego, Calif.) for 30 min on ice. Cells were analyzed on a BD LSR II flow cytometer; the analysis was restricted to live cells (DAPI-negative).
Avoided bradycardia and lymphopenia in vivo by FTY-k-PEG. […]

C57BL/6 mice = assay: Heart rate (ECG telemetry); assay type: in vivo; details: single i.p. dose 10 mg/kg, monitored 10 h, conscious mice
Source text: Heart rate. Male C57BL/6 mice age 4-6 months were surgically implanted with DSI TA-ETAF20 electrocardiographic telemetry devices (Data Sciences International, St. Paul, Minn.) in the mouse's abdominal cavity with biopotential leads sutured in place in the chest wall. The electrocardiographic data was collected and recorded using the PhysioTel telemetry system and Dataquest A.R.T 4.0 software (Data Sciences International). Mice were permitted two week-long recovery after surgery before initiation of baseline telemetry recordings. Heart rate was calculated from ECG data taken in the freely moving, conscious mice. Mice (n=3) were intraperitoneally treated with a single dose of vehicle (0.9% saline or 20% acidified DMSO in 0.9% saline), 10 mg/kg fingolimod, or 155 mg/kg FTY-k-PEG, and heart rate was continuously monitored for 10 h. Mice were rested for two weeks at which point the experiment was repeated with the mice assigned to the alternate group. […]
Avoided bradycardia and lymphopenia in vivo by FTY-k-PEG. To test whether FTY-k-PEG avoids bradycardia, C57BL/6 mice were surgically implanted with an electrocardiographic telemetry device and heart rate was calculated from ECG data taken in the freely moving, conscious mice after intraperitoneal (i.p.) injection of saline, fingolimod, or acid-cleavable FTY-k-PEG (see FIG. 10A). […]

[2] = DNAge (epigenetic aging clock) analysis; assay type: in vivo; details: healthy BALB/c mice, 32 μmol/kg daily i.p., blood two days post-treatment
Procedure: DNAge® (epigenetic aging clock) analysis. Blood samples (100 μL) were collected in triplicate from healthy female BALB/c mice treated as described above. Upon immediate preservation in DNA/RNA Shield™ (Zymo Research, Irvine, Calif.), genomic DNA was purified using Quick-DNA Plus Kit (Zymo Research) as instructed by the manufacturer. Sample library preparation and data analysis for mouse DNAge® (epigenetics aging clock) were performed by service provider (Zymo Research). Briefly, genomic DNA (200 ng) was bisulfite-converted using EZ DNA Methylation_Lightning™ Kit (Zymo Research). Bisulfite-converted DNA libraries for targeted bisulfite sequencing platform, called SWARM® (Simplified Whole-panel Amplification Reaction Method), were sequenced on a HiSeq 1500 sequencer for >1,000× coverage. Sequence reads were identified using Illumina base calling software (San Diego, Calif.) and aligned to the reference genome using Bismark, an aligner optimized for bisulfite sequence data and methylation calling. The methylation level of each sampled cytosine was estimated as the number of reads reporting a C, divided by the total number of reads reporting a C or T. DNA methylation levels of >500 age-related CpG loci were used for age prediction using Zymo Research's proprietary […] DNAge® algorithms: […]

[3] = Water solubility of FTY prodrugs; assay type: physicochemical; details: for water solubility: qualitative
Source text: Design and synthesis of FTY-k-PEG. Acetals (ketals) were chosen for their structural versatility, facile synthesis, and tunable cleavability under mildly acidic conditions. The endosomal pH of ˜5.0 is an excellent intracellular trigger for drug release from acid-labile drug conjugates. Initial synthetic methodology utilized 2-methoxypropene to generate methyl ketal-functionalized fingolimod (mkFTY) (see FIG. 2). […] To retain the ketal moiety while increasing solubility of the prodrug, N-Fmoc piperidone was used to generate a cyclic ketal in kFTY (7) (see FIG. 3), eliminating the hydrophobic methyl groups and incorporating a secondary amine as a functional handle for further conjugation. The ketal formation was achieved using azeotropic distillation by which constant removal of water efficiently drives the reaction to completion. […] To further increase water solubility, kFTY was conjugated to succinimidyl carboxyl methyl ester polyethylene glycol (SCM-PEG 5 k) prior to trifluoroacetamide (TFA)-deprotection to produce FTY-k-PEG (8). FTY-k-PEG was analyzed by MALDI-TOF to confirm PEGylation and TFA-deprotection (see FIG. 4). […] Other macromolecules may be used for conjugation, and a plethora of stimuli-responsive linkers may be explored to further enhance the specificity and safety of an FTY prodrug. The acid-cleavable ketal linkage can be replaced by other moieties responsive to intrinsic environmental stimuli (redox, pH, etc.), external stimuli (heat, ultrasound, photo-irradiation, electrochemical, magnetic, etc.), or specific biological processes (enzymatic cleavage, ion chelation, etc.), depending the molecular structure of a drug and the stimuli to be utilized for target indication. In addition, a variety of macromolecules can also be used in lieu of PEG, including polysaccharides (i.e., hyaluronic acids), peptides, and various synthetic polymers for improved water-solubility, extended circulation, avoided premature activation, nanoparticle formulation, theranostic applications, combating resistance, and specific targeting. […]

[4] = tested on: nutrient transporter associated protein 4F2hc; assay: Nutrient transporter expression (surface 4F2hc, flow cytometry); assay type: cell-based, murine; details: FL5.12 cells, 3 h treatment, compared to fingolimod
Procedure: Cell culture. Murine IL-3-dependent proB-cell lymphoid FL5.12 cells and FL5.12/BCR-Abl p190 cells were obtained by gift. FL5.12/p190 cells were transduced to express firefly luciferase by lentiviral vectors purchased from Capital Bioscience (Gaithersberg, Md.). FL5.12/p190 and luciferase-expressing FL5.12/p190 cells (FL5.12/p190/Luc cells) were maintained at 250,000-800,000 cells/mL in RPMI 1640 media containing 10% (v/v) FBS and 1% (v/v) streptomycin-penicillin. FL5.12 cells were cultured in the same media supplemented with 5 ng/mL IL3. All cells were cultured at 37° C. with 5% CO2 and 100% humidity.
Nutrient transporter expression. Surface 4F2hc expression was measured using phycoerythrin (PE)-conjugated rat anti-mouse 4F2hc antibody (BD Pharmingen, San Diego, Calif.); analysis by flow cytomery was restricted to viable cells. PE-conjugated mouse IgG1, k (BD Pharmingen) was used as an isotype control. Cells were analyzed on a BD LSR II flow cytometer (BD Biosciences, San Jose, Calif.) and with FlowJo software (Treestar, Ashland, Oreg.).
To confirm active drug was released selectively upon acid-hydrolysis, drugs were incubated in buffers of pH 7.4 and pH 5.0 prior to incubation with the cells (see FIG. 8). Fingolimod was pre-incubated in the same buffers to rule out the possibility that the buffers would affect drug's activity or contribute to cell apoptosis. […]

| SMILES | average bioluminescence signal lower than that of PBS (FL5.12/p190-Luc cells) | reduction of lymphocytes [1] | reduction of heart rate (C57BL/6 mice) | epigenetic age [2] | concentration up to which readily soluble in water [3] | water solubility [3] | down-regulation of surface 4F2hc expression [4] |
| --- | --- | --- | --- | --- | --- | --- | --- |
| CCCCCCCCc1ccc(CCC(N)(CO)CO)cc1 [fingolimod, Fingolimod] | 64% | ~60% | 50% | significant increase in epigenetic age |  |  |  |
| CCCCCCCCc1ccc(CCC2(N)COC3(CCNCC3)OC2)cc1 [kFTY] |  |  |  |  | ≤ 10000 µM | increased water solubility compared to mkFTY |  |
| CCCCCCCCc1ccc(CCC2(N)COC(C)(C)OC2)cc1 [mkFTY] |  |  |  |  |  | loss of water solubility | nearly identical efficacy to fingolimod |
